Target: Angiotensin-converting enzyme (Homo sapiens, UniProt P12821)
Test: Compound was tested for its inhibitory potency against angiotensin I converting enzyme.

Angiotensin-converting enzyme, sequence (P12821 whole entry): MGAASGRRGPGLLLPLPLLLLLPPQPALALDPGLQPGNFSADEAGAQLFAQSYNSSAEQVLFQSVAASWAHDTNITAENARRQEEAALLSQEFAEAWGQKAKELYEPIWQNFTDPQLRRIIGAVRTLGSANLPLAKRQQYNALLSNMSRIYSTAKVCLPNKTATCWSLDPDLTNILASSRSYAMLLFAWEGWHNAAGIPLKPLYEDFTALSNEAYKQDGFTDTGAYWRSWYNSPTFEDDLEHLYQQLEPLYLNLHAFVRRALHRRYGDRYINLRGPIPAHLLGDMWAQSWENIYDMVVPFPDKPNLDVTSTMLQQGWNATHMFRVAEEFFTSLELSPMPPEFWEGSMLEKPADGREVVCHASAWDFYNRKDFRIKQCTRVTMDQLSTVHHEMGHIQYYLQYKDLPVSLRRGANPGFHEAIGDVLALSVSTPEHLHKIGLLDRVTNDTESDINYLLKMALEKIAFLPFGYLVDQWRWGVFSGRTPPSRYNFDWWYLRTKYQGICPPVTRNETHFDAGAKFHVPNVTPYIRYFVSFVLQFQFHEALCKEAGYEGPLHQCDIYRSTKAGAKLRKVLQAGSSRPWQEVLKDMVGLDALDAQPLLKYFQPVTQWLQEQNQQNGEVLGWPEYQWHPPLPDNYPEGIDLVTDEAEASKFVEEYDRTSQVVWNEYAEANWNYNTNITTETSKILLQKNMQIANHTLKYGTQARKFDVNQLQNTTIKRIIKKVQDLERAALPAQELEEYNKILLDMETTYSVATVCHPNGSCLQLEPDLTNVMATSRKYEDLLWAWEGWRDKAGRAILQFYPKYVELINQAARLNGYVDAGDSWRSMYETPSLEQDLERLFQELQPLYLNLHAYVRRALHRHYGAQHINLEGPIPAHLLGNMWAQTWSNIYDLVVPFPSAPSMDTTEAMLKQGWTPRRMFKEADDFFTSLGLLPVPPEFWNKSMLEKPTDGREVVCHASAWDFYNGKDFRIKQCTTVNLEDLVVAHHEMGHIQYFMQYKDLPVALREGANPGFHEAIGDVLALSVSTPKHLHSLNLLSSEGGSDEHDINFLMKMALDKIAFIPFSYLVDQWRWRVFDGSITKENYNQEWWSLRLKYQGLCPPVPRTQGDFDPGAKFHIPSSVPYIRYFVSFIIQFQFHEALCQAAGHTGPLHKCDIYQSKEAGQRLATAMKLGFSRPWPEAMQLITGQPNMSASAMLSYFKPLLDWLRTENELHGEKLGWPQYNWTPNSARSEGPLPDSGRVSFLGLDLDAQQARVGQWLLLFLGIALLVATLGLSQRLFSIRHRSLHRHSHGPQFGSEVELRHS

Ki: 1.2 nM
SMILES: O=C(O)C(CCc1ccccc1)NC1Cc2ccccc2[C@H]2CCC[C@@H](C(=O)O)N2C1=O (stereo partly specified)
